Assay results: patent publication US10688099B2, “Methods for modulating the amount of RNA transcripts” (PTC Therapeutics, Inc., priority 2013, dated 2020)

Tested on: human genes (total transcript abundance) in PNN 1-46 cells
Experiment: RNA sequencing, total transcript abundance at the gene level, Compound vs DMSO control
Format: cell-based
Description: PNN 1-46 cells derived from a Type I SMA patient were treated with Compound 702 at 500 nM for 24 hours. RNA was purified with the RNeasy Mini Kit (Qiagen) for mRNA sequencing on HiSeq 2500 (Illumina Inc., San Diego, Calif.). The quality of the total RNA was assessed using UV spectrophotometry and agarose gel electrophoresis. Template DNA molecules suitable for cluster generation were prepared from 1 ug of total RNA samples using the TruSeq RNA Sample Preparation Kit v2 (Illumina Inc., San Diego, Calif.) according to the manufacturer's instructions. The size distribution of the libraries was estimated by electrophoresis on Agilent High Sensitivity Bioanalyzer microfluidic chips. The minimum and average sizes of the amplified libraries were determined to be >200 nucleotides and 300-340 nucleotides, respectively. Libraries were quantified using the KAPA Library Quantification Kit (KK4824, Kapa Biosystems, Boston, Mass.). The libraries were pooled at equimolar concentrations and diluted prior to loading onto the flow cell of the HiSeq 2500 (Illumina Inc., San Diego, Calif.) for both clustering and sequencing. The libraries were extended and bridge-amplified to create single sequence clusters using the TruSeq Rapid PE Cluster Kit—HS (Illumina Inc., San Diego, Calif.). Amplified clusters in the flow cell were then sequenced with 50-bp paired-end reads using the TruSeq Rapid SBS Kit—HS (Illumina Inc., San Diego, Calif.) in rapid run mode. Real time image analysis and base calling were performed on the HiSeq 2500 instrument using the HiSeq Sequencing Control Software (HCS). […]
In order to estimate gene expression levels, paired-end RNAseq reads were subsequently mapped to RefSeq human transcripts (release 60) and the human genome (hg19) by using the short read aligner Bowtie2 (Langmead et al., 2012. Nature methods 9:357). The number of mapped reads for all transcript variants of a gene (counts) were combined into a single value and normalized denoted as rpkms (number of mapped reads per kilobase transcript per million sequenced reads, (Mortazavi et al., 2008. Nature methods 5:621)). The splice-site analysis was performed by mapping the paired-end RNASeq reads to RefSeq human transcripts using the alignment software GSNAP with default parameters and the option ‘sam-multiple-primaries’ in order to account for reads that were mapped multiple times to different splice variants. The number of reads spanning splice-sites was determined by applying the samtools mpileup software with default parameters for each transcript. Reads having an alignment start or end exactly on the splice-site were excluded from the analysis (Wu et al., 2005, Bioinformatics 21:1859; Wu et al., 2010, Bioinformatics 26:873; Li et al., 2009, Bioinformatics 25:2078). […]

CCN1CCC(c2cc(C)c3nc(-c4cc5c(C)nc(C)cn5n4)cc(=O)n3c2)CC1 [Compound 702]
genes up- or downregulated, respectively, at threshold |Log2FC| 1 (500 nM vs DMSO control, 11,714 human genes with rpkm >1, FIG. 2B): six | change in total mRNA abundance of SMN2 (500 nM vs DMSO control, PNN 1-46, 24 hours, FIG. 2A): no change | Log2FC of total transcript expression of POLN (DNA polymerase nu) (500 nM vs DMSO control, only changed gene among the gene families of FIG. 3): > 1 | deregulation in gene families involved in DNA or RNA metabolism or cell survival (500 nM, 24 hours, PNN 1-46, FIG. 3): No deregulation
